Test results taken from PMC12281424, “A Rac-specific competitive inhibitor of guanine nucleotide binding reduces metastasis in triple-negative breast cancer” (Cell Reports Medicine, 2025).

Tests used:
[1] = biological target: Fes(h) (Homo sapiens, UniProt P07332); experiment: Kinase Profiler; assay type: biochemical
Description: (§1) The kinase profiler was performed by the company Eurofins (Discovery, Panlab and Cerep).

[2] = biological target: LIMK2(h) (Homo sapiens, UniProt P53671); experiment: Kinase Profiler; assay type: biochemical
Description: as §1

[3] = biological target: DRAK2(h) (Homo sapiens, UniProt O94768); experiment: Kinase Profiler; assay type: biochemical
Description: (§2) Blood cell counts, kinase profiler, safety screen, bacterial cytotoxicity, Ames, micronucleus assays were performed by the company Eurofins (France). The kinase profiler was performed by the company Eurofins (Discovery, Panlab and Cerep).

[4] = biological target: PKBβ(h) (Homo sapiens, UniProt P31751); experiment: Kinase Profiler; assay type: biochemical
Description: as §1

[5] = biological target: ZAK(h) (Homo sapiens, UniProt Q9NYL2); experiment: Kinase Profiler; assay type: biochemical
Description: as §1

[6] = biological target: SRPK2(h) (Homo sapiens, UniProt P78362); experiment: Kinase Profiler; assay type: biochemical
Description: as §1

[7] = biological target: CDK18/cyclinY(h) (Homo sapiens, UniProt Q07002); experiment: Kinase Profiler; assay type: biochemical
Description: as §1

[8] = biological target: CHK2(R145W)(h) (Homo sapiens, UniProt O96017, R145W); experiment: Kinase Profiler; assay type: biochemical
Description: as §1

[9] = biological target: MST4(h) (Homo sapiens, UniProt Q9P289); experiment: Kinase Profiler; assay type: biochemical
Description: as §1

[10] = biological target: ChaK1(h) (Homo sapiens, UniProt Q96QT4); experiment: Kinase Profiler; assay type: biochemical
Description: as §1

[11] = tested on: Calcium Channel L-Type, Dihydropyridine; experiment: Safety screen; assay type: binding, rat
[12] = biological target: CK1ε(h) (Homo sapiens, UniProt P49674); experiment: Kinase Profiler; assay type: biochemical
Description: as §2

[13] = Ames fluctuation test (1st group); assay type: cell-based
Excerpt: Data S3. Ames-fluctuation assay-A41.
Test Concentration Count Positive Significance Fisher Exact Test
(# of wells) (- to +++) (p-value)
Ames fluctuation test (TA100 + S9

[14] = biological target: CK1γ3(h) (Homo sapiens, UniProt Q9Y6M4); experiment: Kinase Profiler; assay type: biochemical
Description: as §2

[15] = biological target: HIPK3(h) (Homo sapiens, UniProt Q9H422); experiment: Kinase Profiler; assay type: biochemical
Description: as §1

[16] = biological target: JNK2α2(h) (Homo sapiens, UniProt P45984); experiment: Kinase Profiler; assay type: biochemical
Description: as §1

[17] = biological target: EphA4(h) (Homo sapiens, UniProt P54764); experiment: Kinase Profiler; assay type: biochemical
Description: as §2

[18] = biological target: MLK1(h) (Homo sapiens, UniProt P80192); experiment: Kinase Profiler; assay type: biochemical
Description: as §2

[19] = biological target: JNK1α1(h) (Homo sapiens, UniProt P45983); experiment: Kinase Profiler; assay type: biochemical
Description: as §1

[20] = biological target: CHK2(I157T)(h) (Homo sapiens, UniProt O96017, I157T); experiment: Kinase Profiler; assay type: biochemical
Description: as §1

[21] = biological target: STK32A(h) (Homo sapiens, UniProt Q8WU08); experiment: Kinase Profiler; assay type: biochemical
Description: as §1

[22] = biological target: PI3K (p110a(E542K)/p85a)(h) (Homo sapiens, UniProt P42336, E542K); experiment: Kinase Profiler; assay type: biochemical
Description: as §1

[23] = biological target: Nicotinic Acetylcholine α1, Bungarotoxin (Homo sapiens, UniProt P02708+P07510+Q07001); experiment: Safety screen; assay type: binding
[24] = biological target: DCAMKL2(h) (Homo sapiens, UniProt Q8N568); experiment: Kinase Profiler; assay type: biochemical
Description: as §2

[25] = biological target: DDR2(h) (Homo sapiens, UniProt Q16832); experiment: Kinase Profiler; assay type: biochemical
Description: as §2

[26] = biological target: Abl (H396P) (h) (Homo sapiens, UniProt P00519, H396P); experiment: Kinase Profiler; assay type: biochemical
Description: as §1

[27] = biological target: MARK3(h) (Homo sapiens, UniProt P27448); experiment: Kinase Profiler; assay type: biochemical
Description: as §1

[28] = biological target: PAK3(h) (Homo sapiens, UniProt O75914); experiment: Kinase Profiler; assay type: biochemical
Description: as §1

[29] = biological target: CLK3(h) (Homo sapiens, UniProt P49761); experiment: Kinase Profiler; assay type: biochemical
Description: as §1

[30] = biological target: Cholecystokinin CCK1 (CCKA) (Homo sapiens, UniProt P32238); experiment: Safety screen; assay type: binding
Description: Blood cell counts, kinase profiler, safety screen, bacterial cytotoxicity, Ames, micronucleus assays were performed by the company Eurofins (France).

[31] = biological target: PASK(h) (Homo sapiens, UniProt Q96RG2); experiment: Kinase Profiler; assay type: biochemical
Description: as §1

Sequence of Fes(h) (P07332 whole entry): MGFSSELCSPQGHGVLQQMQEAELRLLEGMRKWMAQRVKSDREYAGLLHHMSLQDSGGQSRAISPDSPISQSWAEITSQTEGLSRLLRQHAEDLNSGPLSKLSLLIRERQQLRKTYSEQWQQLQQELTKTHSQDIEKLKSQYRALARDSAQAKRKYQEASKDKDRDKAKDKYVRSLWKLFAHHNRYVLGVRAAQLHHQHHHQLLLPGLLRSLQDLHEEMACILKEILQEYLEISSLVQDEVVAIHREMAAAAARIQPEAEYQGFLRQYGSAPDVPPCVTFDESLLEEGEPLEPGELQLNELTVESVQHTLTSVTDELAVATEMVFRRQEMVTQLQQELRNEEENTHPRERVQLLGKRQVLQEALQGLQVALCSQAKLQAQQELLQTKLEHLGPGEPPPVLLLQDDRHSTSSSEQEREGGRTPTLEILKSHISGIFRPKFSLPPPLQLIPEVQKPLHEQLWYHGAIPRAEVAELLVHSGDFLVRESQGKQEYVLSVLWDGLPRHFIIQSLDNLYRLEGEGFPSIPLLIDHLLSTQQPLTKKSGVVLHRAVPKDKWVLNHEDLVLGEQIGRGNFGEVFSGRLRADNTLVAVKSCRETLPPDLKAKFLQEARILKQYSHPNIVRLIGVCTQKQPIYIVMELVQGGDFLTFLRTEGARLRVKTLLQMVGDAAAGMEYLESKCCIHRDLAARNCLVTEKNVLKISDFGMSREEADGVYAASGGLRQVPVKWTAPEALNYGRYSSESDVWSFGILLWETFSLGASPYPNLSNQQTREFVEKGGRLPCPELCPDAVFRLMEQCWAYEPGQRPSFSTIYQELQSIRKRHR
Sequence of JNK1α1(h) (P45983 1-384 isoform P45983-2): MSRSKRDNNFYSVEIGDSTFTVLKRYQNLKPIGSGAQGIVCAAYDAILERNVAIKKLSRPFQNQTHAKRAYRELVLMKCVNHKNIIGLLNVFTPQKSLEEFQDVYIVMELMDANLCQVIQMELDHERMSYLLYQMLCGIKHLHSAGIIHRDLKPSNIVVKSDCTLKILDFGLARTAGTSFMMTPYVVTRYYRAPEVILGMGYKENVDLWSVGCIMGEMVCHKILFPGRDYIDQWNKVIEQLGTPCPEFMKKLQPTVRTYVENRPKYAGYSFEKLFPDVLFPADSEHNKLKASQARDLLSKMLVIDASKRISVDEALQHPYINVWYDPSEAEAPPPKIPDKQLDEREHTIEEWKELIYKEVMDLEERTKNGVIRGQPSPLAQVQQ
Sequence of ZAK(h) (Q9NYL2 whole entry): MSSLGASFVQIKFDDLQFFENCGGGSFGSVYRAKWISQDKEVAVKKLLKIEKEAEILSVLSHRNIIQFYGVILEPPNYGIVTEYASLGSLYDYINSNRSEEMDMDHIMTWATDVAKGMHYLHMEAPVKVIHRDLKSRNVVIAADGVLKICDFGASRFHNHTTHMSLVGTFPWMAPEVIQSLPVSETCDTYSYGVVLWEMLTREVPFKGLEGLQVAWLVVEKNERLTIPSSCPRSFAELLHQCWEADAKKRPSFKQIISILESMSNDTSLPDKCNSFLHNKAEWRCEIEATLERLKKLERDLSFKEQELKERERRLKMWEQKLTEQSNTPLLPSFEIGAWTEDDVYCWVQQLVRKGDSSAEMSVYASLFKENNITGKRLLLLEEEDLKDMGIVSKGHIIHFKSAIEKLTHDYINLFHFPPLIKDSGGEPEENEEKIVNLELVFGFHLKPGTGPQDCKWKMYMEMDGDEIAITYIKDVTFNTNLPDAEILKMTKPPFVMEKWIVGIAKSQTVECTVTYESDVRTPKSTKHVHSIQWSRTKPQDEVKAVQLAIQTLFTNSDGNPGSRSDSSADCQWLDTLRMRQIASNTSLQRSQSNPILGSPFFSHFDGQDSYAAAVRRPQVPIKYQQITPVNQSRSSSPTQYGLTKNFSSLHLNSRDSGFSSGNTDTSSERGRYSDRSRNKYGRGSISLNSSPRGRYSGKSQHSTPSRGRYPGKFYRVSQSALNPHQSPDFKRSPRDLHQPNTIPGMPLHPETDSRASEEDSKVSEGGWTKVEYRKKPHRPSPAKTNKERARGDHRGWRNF
Sequence of HIPK3(h) (Q9H422 whole entry): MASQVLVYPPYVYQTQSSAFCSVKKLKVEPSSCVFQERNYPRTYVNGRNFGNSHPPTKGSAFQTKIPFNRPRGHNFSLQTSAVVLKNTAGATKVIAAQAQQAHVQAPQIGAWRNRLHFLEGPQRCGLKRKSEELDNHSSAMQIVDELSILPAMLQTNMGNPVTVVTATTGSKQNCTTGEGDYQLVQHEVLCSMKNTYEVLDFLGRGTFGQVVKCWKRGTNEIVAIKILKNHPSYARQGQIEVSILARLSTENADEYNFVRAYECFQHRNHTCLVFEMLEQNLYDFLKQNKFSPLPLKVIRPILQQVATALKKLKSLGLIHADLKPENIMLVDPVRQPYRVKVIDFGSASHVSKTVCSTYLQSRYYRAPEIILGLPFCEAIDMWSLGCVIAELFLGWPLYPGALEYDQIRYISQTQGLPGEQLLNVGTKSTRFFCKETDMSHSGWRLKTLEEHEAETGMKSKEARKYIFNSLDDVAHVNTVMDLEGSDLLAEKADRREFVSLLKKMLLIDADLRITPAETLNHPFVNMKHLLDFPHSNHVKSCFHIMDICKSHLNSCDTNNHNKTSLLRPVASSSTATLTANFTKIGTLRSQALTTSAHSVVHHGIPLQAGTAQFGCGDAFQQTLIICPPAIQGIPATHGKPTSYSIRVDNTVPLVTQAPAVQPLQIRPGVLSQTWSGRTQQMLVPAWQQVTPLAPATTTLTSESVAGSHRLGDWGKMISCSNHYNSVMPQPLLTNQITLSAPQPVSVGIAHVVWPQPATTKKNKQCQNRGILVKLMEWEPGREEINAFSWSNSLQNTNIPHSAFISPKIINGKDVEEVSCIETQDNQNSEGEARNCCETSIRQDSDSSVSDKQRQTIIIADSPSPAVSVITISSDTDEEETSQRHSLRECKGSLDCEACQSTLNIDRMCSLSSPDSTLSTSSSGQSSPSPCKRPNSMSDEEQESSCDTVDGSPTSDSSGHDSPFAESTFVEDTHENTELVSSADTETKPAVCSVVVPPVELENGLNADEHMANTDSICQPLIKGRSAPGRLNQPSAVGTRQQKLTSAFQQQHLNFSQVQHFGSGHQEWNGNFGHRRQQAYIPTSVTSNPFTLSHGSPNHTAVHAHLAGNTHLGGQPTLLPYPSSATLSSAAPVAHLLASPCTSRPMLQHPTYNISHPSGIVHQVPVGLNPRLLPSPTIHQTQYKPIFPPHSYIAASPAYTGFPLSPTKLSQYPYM
Sequence of DCAMKL2(h) (Q8N568 whole entry): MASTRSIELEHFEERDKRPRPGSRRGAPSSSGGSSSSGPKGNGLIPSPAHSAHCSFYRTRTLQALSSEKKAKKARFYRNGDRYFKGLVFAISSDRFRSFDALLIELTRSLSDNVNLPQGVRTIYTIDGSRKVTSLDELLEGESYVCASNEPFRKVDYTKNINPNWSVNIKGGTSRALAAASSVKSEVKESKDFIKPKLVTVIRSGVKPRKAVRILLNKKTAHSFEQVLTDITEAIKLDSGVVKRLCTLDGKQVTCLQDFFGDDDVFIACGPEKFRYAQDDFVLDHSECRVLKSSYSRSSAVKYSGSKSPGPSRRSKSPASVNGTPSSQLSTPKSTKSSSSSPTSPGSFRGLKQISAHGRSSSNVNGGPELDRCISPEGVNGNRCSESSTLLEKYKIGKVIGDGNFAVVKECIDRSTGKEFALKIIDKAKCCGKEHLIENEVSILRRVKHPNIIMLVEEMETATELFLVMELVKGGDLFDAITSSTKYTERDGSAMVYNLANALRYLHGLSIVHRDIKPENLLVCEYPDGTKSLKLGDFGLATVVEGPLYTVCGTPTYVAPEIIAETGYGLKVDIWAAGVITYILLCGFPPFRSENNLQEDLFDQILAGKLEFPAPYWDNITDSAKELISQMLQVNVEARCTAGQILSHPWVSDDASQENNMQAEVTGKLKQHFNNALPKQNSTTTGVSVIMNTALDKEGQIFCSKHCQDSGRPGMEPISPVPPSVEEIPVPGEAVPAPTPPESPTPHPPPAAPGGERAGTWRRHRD
Sequence of EphA4(h) (P54764 20-986): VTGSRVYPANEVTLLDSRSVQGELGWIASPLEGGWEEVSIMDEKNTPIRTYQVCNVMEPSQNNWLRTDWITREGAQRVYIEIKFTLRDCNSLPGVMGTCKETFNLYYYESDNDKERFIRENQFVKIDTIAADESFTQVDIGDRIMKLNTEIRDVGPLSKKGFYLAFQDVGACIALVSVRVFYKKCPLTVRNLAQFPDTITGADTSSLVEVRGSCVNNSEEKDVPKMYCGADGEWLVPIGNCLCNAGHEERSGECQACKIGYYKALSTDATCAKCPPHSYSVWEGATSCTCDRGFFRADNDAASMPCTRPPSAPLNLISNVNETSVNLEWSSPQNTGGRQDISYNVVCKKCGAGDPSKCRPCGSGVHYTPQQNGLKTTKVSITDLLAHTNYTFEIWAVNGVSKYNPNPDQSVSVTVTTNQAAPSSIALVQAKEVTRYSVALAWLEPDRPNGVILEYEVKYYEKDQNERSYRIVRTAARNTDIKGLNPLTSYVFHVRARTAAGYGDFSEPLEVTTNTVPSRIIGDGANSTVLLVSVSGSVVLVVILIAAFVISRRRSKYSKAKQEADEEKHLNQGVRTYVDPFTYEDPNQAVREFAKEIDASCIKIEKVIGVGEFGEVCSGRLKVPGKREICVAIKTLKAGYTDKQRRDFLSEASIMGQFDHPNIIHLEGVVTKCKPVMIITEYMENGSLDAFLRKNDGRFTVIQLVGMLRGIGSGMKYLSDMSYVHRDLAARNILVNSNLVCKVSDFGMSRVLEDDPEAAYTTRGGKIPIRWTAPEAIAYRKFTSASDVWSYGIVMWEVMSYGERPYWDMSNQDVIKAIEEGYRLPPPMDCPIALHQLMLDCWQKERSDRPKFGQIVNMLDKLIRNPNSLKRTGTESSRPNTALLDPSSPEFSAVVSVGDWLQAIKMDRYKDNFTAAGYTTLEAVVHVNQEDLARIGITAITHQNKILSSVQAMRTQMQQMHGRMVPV

COc1ccc(OC)c(NS(=O)(=O)c2ccc(NC(=O)CCSc3ccc(C)cc3)cc2)c1 [Compound A41]
Activity(%) [1]: 116%
Activity(%) [2]: 115%
Activity(%) [3]: 90%
Activity(%) [4]: 116%
Activity(%) [5]: 109%
Activity(%) [6]: 96%
Activity(%) [7]: 101%
Activity(%) [8]: 92%
Activity(%) [9]: 101%
Activity(%) [10]: 104%
% inh. [11]: 85%
Activity(%) [12]: 108%
Count Positive (# of wells) ([13]; 1.0E-04 M): 1
Count Positive (# of wells) ([13]; 1.0E-05 M): 2
Count Positive (# of wells) ([13]; 5.0E-05 M): 0
Count Positive (# of wells) ([13]; 5.0E-06 M): 0
Activity(%) [14]: 101%
Activity(%) [15]: 95%
Activity(%) [16]: 101%
Activity(%) [17]: 111%
Activity(%) [18]: 102%
Activity(%) [19]: 94%
Activity(%) [20]: 112%
Activity(%) [21]: 100%
Activity(%) [22]: 105%
% inh. [23]: 0%
Activity(%) [24]: 103%
Activity(%) [25]: 114%
Activity(%) [26]: 92%
Activity(%) [27]: 98%
Activity(%) [28]: 107%
Activity(%) [29]: 110%
% inh. [30]: 31%
Activity(%) [31]: 97%
